The source of these data is patent publication US12624034B2, “Non-covalent modifiers of AKT1 and uses thereof” (Terremoto Biosciences, Inc., priority 2023, dated 2026).

SMILES strings stand for the structures. Like-named read-outs stand apart in the source and are kept apart here. Where only a bound is given, the exact number is not on record here.

One assay concerns the target T1, AKT1 E17K (Homo sapiens, UniProt P31749, E17K).
T1 construct: expressed in transfected cells; host or cells: HEK293
The assay is described as follows: Live cell AKT1 E17K target engagement by NanoBRET competitive probe displacement in HEK293 cells. In kind it is binding. As to conditions: 2 h at 37° C. A digest of the protocol: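 Read-out: BRET ratio E600/E460 from luminescence at 460 and 600 nm, fitted to a log(inhibitor) vs. response Hill equation for IC50. Intact HEK293 cells expressing NanoLuc-tagged kinase, compound dilutions with ~EC50 ATP-competitive fluorescent tracer, 2 h, 37° C.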
(In general: Bioluminescence resonance energy transfer reports proximity on the nanometre scale.)

The test system of assay [1] is LAPC4 prostate cancer cells, which express the AKT1 E17K allele. The assay is described as follows: Antiproliferative effects in LAPC4 cells (CellTiter Glo, 72 h). As to conditions: Homo sapiens, LAPC4, 72 h, read-out: LAPC4 proliferation IC50. The class given is cell-based. An outline of the steps: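 Luminescent ATP read-out (CellTiter Glo) after 72 h compound exposure; 1,000 cells/well in IMDM + 12% FBS + 1% P/S. IC50 by Hill equation fit of luminescence vs. log(inhibitor).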

For the next assay, the target named is T2, AKT1 WT (Homo sapiens, UniProt P31749).
T2 construct: expressed in transfected cells; host or cells: HEK293
T2 sequence (P31749 whole entry): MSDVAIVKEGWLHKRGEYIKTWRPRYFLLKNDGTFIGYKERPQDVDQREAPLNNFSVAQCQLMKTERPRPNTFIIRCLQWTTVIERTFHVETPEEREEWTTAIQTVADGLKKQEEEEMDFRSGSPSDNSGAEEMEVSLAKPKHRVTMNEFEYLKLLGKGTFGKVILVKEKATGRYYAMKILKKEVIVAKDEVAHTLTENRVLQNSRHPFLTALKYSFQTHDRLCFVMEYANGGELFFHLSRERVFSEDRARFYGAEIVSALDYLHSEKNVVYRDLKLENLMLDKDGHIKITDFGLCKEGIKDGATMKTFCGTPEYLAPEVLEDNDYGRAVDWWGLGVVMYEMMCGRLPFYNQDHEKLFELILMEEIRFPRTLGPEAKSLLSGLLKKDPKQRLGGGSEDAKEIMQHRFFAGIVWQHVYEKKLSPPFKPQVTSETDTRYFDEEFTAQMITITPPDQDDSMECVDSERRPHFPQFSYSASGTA
Kind of assay: Live cell AKT1 WT target engagement by NanoBRET competitive probe displacement in HEK293 cells. In kind it is binding. As to conditions: 2 h at 37° C., read-out: AKT1 WT IC50.

The target of the next assay is T3, AKT2 (Homo sapiens, UniProt P31751).
T3 construct: expressed in transfected cells; host or cells: HEK293
T3 sequence (P31751 whole entry): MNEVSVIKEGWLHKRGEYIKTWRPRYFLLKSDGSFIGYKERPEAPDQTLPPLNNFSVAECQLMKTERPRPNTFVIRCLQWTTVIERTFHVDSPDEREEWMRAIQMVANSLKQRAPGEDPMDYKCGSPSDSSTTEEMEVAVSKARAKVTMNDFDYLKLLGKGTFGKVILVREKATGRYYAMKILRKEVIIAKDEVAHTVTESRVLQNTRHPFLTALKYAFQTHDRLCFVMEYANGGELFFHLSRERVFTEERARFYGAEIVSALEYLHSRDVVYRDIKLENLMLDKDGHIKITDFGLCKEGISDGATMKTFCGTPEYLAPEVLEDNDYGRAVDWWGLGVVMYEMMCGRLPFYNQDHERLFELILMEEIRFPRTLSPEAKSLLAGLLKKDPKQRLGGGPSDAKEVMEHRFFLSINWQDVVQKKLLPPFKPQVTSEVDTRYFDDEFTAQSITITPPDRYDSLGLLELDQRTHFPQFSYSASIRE
The assay is described as follows: Live cell AKT2 target engagement by NanoBRET competitive probe displacement in HEK293 cells. In kind it is binding. As to conditions: 2 h at 37° C., read-out: AKT2 IC50.

Where [2] appears, read: NanoBRET competitive probe displacement, live HEK293 cells.
Where [3] appears, read: NanoBRET live cell target engagement, HEK293 cells.

T1 sequence (P31749 whole entry E17K): as the sequence (P31749 whole entry) above, with E17K counted along it

For `COc1cc(C(=O)N[C@H]2CCc3cc(-n4c(-c5ccccc5F)nc5ccc(-n6cccn6)nc54)ccc32)ccn1` [Compound 402], the IC50 amounted to 53.3 nM on AKT1 E17K (setting [2]), 3000 nM in assay [1], 7.99 nM at AKT1 WT (setting [2]) and 477 nM at AKT2 (setting [2]).
Take `Nc1ncccc1-c1nc2ccc(-n3cccn3)nc2n1-c1ccc2c(c1)CC[C@@H]2NC(=O)c1cncnc1` [Compound 40, N-[(1S)-5-[2-(2-aminopyridin-3-yl)-5-(pyrazol-1-yl)imidazo[4,5-b]pyridin-3-yl]-2,3-dihydro-1H-inden-1-yl]pyrimidine-5-carboxamide]: the IC50 on AKT1 E17K (setting [3]) is 36 nM; in assay [1], 1770 nM; at AKT1 WT (setting [3]), 9.21 nM; at AKT2 (setting [3]), 179 nM.
The like results for `Cc1cc(C(=O)N[C@H]2CCc3cc(-n4c(-c5cccnc5N)nc5ccc(-n6cccn6)nc54)ccc32)n[nH]1` [Compound 4, (S)—N-(5-(2-(2-aminopyridin-3-yl)-5-(1H-pyrazol-1-yl)-3H-imidazo[4,5-b]pyridin-3-yl)-2,3-dihydro-1H-inden-1-yl)-5-methyl-11H-pyrazole-3-carboxamide] were, in that order, 172 nM, 1770 nM, 19.7 nM and 295 nM.
The like results for `Nc1ncccc1-c1nc2ccc(-n3cccn3)nc2n1-c1ccc2c(c1)CC[C@@H]2NC(=O)c1ccc(O)c(F)c1` [Compound 16, (S)—N-(5-(2-(2-aminopyridin-3-yl)-5-(1H-pyrazol-1-yl)-3H-imidazo[4,5-b]pyridin-3-yl)-2,3-dihydro-1H-inden-1-yl)-3-fluoro-4-hydroxybenzamide] were, in that order, 10.2 nM, 560 nM, 2.41 nM and 66.5 nM.
The like results for `Nc1ncccc1-c1nc2ccc(-n3cccn3)nc2n1-c1ccc2c(c1)CC[C@@H]2NC(=O)c1cnc(C(F)F)cn1` [Compound 322] were, in that order, 274 nM, 2550 nM, 63.5 nM and 1330 nM.
With `Nc1ncccc1-c1nc2ccc(-n3cccn3)nc2n1-c1ccc2c(c1)CC[C@@H]2NC(=O)Cc1ccncc1` [Compound 49, N-[(1S)-5-[2-(2-aminopyridin-3-yl)-5-(pyrazol-1-yl)imidazo[4,5-b]pyridin-3-yl]-2,3-dihydro-1H-inden-1-yl]-2-(pyridin-4-yl)acetamide], the IC50 on AKT1 E17K (setting [3]) is over 1000 nM; in assay [1] it was over 10000 nM; at AKT1 WT (setting [3]), 199 nM; at AKT2 (setting [3]) it was 2840 nM.
As to `Nc1ncccc1-c1nc2ccc(-n3cccn3)nc2n1-c1ccc2c(c1)CC[C@@H]2NC(=O)c1ccccc1` [Compound 43, (S)—N-(5-(2-(2-aminopyridin-3-yl)-5-(1H-pyrazol-1-yl)-3H-imidazo[4,5-b]pyridin-3-yl)-2,3-dihydro-1H-inden-1-yl)benzamide], the IC50 on AKT1 E17K (setting [3]) was 44.2 nM; in assay [1] it was 1160 nM; at AKT1 WT (setting [3]), 14.1 nM; at AKT2 (setting [3]), 139 nM.
The like results for `COc1cc(C(=O)N[C@H]2CCc3cc(-n4c(-c5cccnc5N)nc5ccc(-n6cccn6)nc54)ccc32)c(C)cn1` [Compound 357] were, in that order, 23.8 nM, 875 nM, 5.79 nM and 20 nM.
On to `Nc1ncccc1-c1nc2ccc(-n3cccn3)nc2n1-c1ccc2c(c1)CC[C@@H]2NC(=O)c1ccc(O)c(C(F)(F)F)c1` [Compound 257], for which the IC50 stood at 16.5 nM on AKT1 E17K (setting [3]), 1430 nM in assay [1], 8.26 nM on AKT1 WT (setting [3]) and 273 nM on AKT2 (setting [3]).
`CCc1coc(C(=O)N[C@H]2CCc3cc(-n4c(-c5cccnc5N)nc5ccc(-n6cccn6)nc54)ccc32)n1` [Compound 57, (S)—N-(5-(2-(2-aminopyridin-3-yl)-5-(1H-pyrazol-1-yl)-3H-imidazo[4,5-b]pyridin-3-yl)-2,3-dihydro-1H-inden-1-yl)-4-ethyloxazole-2-carboxamide]: the IC50 at AKT1 E17K (setting [3]) is 192 nM; in assay [1], 1320 nM; at AKT1 WT (setting [3]), 23.4 nM; on AKT2 (setting [3]), 52.8 nM.
The like results for `Nc1ncccc1-c1nc2ccc(-n3nccn3)nc2n1-c1ccc2c(c1)CC[C@@H]2NC(=O)c1cncnc1` [Compound 59, (S)—N-(5-(2-(2-aminopyridin-3-yl)-5-(2H-1,2,3-triazol-2-yl)-3H-imidazo[4,5-b]pyridin-3-yl)-2,3-dihydro-1H-inden-1-yl)pyrimidine-5-carboxamide] were, in that order, 261 nM, 3620 nM, 48.8 nM and 3430 nM.
The like results for `Nc1ncccc1-c1nc2ccc(-n3cccn3)nc2n1-c1ccc2c(c1)CC[C@@H]2NC(=O)C1CC1` [Compound 37, N-[(1S)-5-[2-(2-aminopyridin-3-yl)-5-(pyrazol-1-yl)imidazo[4,5-b]pyridin-3-yl]-2,3-dihydro-1H-inden-1-yl]cyclopropanecarboxamide] were, in that order, over 1000 nM, over 10000 nM, 175 nM and 7720 nM.
The like results for `Nc1ncccc1-c1nc2ccc(-n3cccn3)nc2n1-c1ccc2c(c1)CC[C@@H]2NC(=O)c1ccnc2occc12` [Compound 282] were, in that order, 84.2 nM, 1310 nM, 5.86 nM and 68.9 nM.
With `Nc1ncccc1-c1nc2ccc(-n3ccc(F)n3)nc2n1-c1ccc2c(c1)CC[C@@H]2NC1CCN(c2ccccn2)CC1` [Compound 367], the IC50 came out at 735 nM on AKT1 E17K (setting [3]), 6330 nM in assay [1], 74.4 nM at AKT1 WT (setting [3]) and 2520 nM on AKT2 (setting [3]).
The like results for `Cc1ccc(C(=O)N[C@H]2CCc3cc(-n4c(-c5cccnc5N)nc5ccc(-n6nccn6)nc54)ccc32)cn1` [Compound 67] were, in that order, 229 nM, 1140 nM, 15 nM and 636 nM.
The like results for `C#Cc1ccc(C(=O)N[C@H]2CCc3cc(-n4c(-c5cccnc5N)nc5ccc(-n6cccn6)nc54)ccc32)cn1` [Compound 55, (S)—N-(5-(2-(2-aminopyridin-3-yl)-5-(1H-pyrazol-1-yl)-3H-imidazo[4,5-b]pyridin-3-yl)-2,3-dihydro-1H-inden-1-yl)-6-ethynylnicotinamide] were, in that order, 107 nM, 1510 nM, 16.2 nM and 49.2 nM.
The like results for `CCc1cn([C@H]2CCc3cc(-n4c(-c5cccnc5N)nc5ccc(-n6cccn6)nc54)ccc32)nn1` [Compound 285] were, in that order, 39.5 nM, 2230 nM, 23.7 nM and 608 nM.
For `Nc1ncccc1-c1nc2ccc(-n3nccn3)nc2n1-c1ccc2c(c1)CC[C@@H]2NC(=O)c1ccnc2c1CCO2` [Compound 286], the IC50 at AKT1 E17K (setting [3]) was 897 nM; in assay [1], 4810 nM; on AKT1 WT (setting [3]), 40.5 nM; on AKT2 (setting [3]) it was 589 nM.
The like results for `Nc1ncccc1-c1nc2ccc(-n3nccn3)nc2n1-c1ccc2c(c1)CC[C@@H]2NC(=O)c1ccc(C(F)F)nc1` [Compound 65, (S)—N-(5-(2-(2-aminopyridin-3-yl)-5-(2H-1,2,3-triazol-2-yl)-3H-imidazo[4,5-b]pyridin-3-yl)-2,3-dihydro-1H-inden-1-yl)-6-(difluoromethyl)nicotinamide] were, in that order, 292 nM, 925 nM, 19.4 nM and 1070 nM.
On to `COc1cc(C(=O)N[C@H]2CCc3cc(-n4c(-c5cccnc5N)nc5ccc(-n6cccn6)nc54)ccc32)ccn1` [Compound 25, (S)—N-(5-(2-(2-aminopyridin-3-yl)-5-(1H-pyrazol-1-yl)-3H-imidazo[4,5-b]pyridin-3-yl)-2,3-dihydro-1H-inden-1-yl)-2-methoxyisonicotinamide], for which the IC50 stood at 7.43 nM on AKT1 E17K (setting [3]), 576 nM in assay [1], 2.11 nM at AKT1 WT (setting [3]) and 9.84 nM at AKT2 (setting [3]).
The like results for `Nc1ncccc1-c1nc2ccc(-n3cccn3)nc2n1-c1ccc2c(c1)CC[C@@H]2n1cc(C2CCC2)nn1` [Compound 287] were, in that order, 259 nM, 3000 nM, 16.9 nM and 636 nM.
The like results for `Nc1ncccc1-c1nc2ccc(-n3cccn3)nc2n1-c1ccc2c(c1)CC[C@@H]2NC(=O)Cc1cccnc1` [Compound 48, (S)—N-(5-(2-(2-aminopyridin-3-yl)-5-(1H-pyrazol-1-yl)-3H-imidazo[4,5-b]pyridin-3-yl)-2,3-dihydro-1H-inden-1-yl)-2-(pyridin-3-yl)acetamide] were, in that order, over 1000 nM, over 10000 nM, 155 nM and 2850 nM.
Regarding `Nc1ncccc1-c1nc2ccc(-n3cccn3)nc2n1-c1ccc2c(c1)CC[C@@H]2NC(=O)c1ccn(C(F)F)n1` [Compound 174], the IC50 is 52 nM at AKT1 E17K (setting [3]), 1440 nM in assay [1], 13.2 nM on AKT1 WT (setting [3]) and 431 nM on AKT2 (setting [3]).
